Reference: the NIST ThermoML archive (doi:10.1021/acs.jced.7b00221)

Assay: xn = mol fraction of the nth substance listed
Conditions: 100 kPa, Liquid, Cone and plate viscometry

CC(=O)[O-].CCCCCCCCCCCCCC[P+](CCCCCC)(CCCCCC)CCCCCC [trihexyl(tetradecyl)phosphonium acetate] + CCCCCC[n+]1ccn(C)c1.O=S(=O)([N-]S(=O)(=O)C(F)(F)F)C(F)(F)F
viscosity [mPa·s]
Conditions | 278.15 K | 283.15 K | 288.15 K | 293.15 K | 298.15 K | 303.15 K | 308.15 K | 313.15 K | 318.15 K | 323.15 K
x1 = 0.101 | 353 | 251 | 182 | 136 | 105 | 82 | 66 | 53 | – | –
x1 = 0.199 | 579 | 404 | 286 | 209 | 156 | 120 | 94 | 75 | 61 | –
x1 = 0.3 | 946 | 644 | 447 | 319 | 235 | 177 | 136 | 107 | 85 | 70
x1 = 0.4 | 1403 | 939 | 640 | 449 | 324 | 239 | 181 | 140 | 110 | 88
x1 = 0.499 | 2057 | 1345 | 901 | 621 | 440 | 320 | 238 | 181 | 141 | 112
x1 = 0.6 | 2588 | 1669 | 1100 | 746 | 523 | 376 | 277 | 207 | 159 | 124
x1 = 0.699 | 2721 | 1763 | 1160 | 785 | 530 | 381 | 279 | 208 | 159 | 125
x1 = 0.799 | 2877 | 1850 | 1219 | 827 | 578 | 414 | 304 | 228 | 175 | 137
x1 = 0.899 | 2415 | 1575 | 1047 | 717 | 505 | 366 | 271 | 204 | 158 | 123
